In brackets after ≈: the same amount, converted by molar mass. Activity calls are given as the source filed them. The calls are words filed in the database; no cut-off is given here.
Key:
Assay type in all cases: functional
[1] = system: Chromobacterium violaceum; assay: Antibacterial activity against Chromobacterium violaceum MTCC 2656 assessed as inhibition zones at 300 ug/disk at 37 degC for 24 hr; settings: MTCC 2656, 24 h, read-out: IZ
Klebsiella aerogenes [2] = assay: Antibacterial activity against Enterobacter aerogenes MTCC 39 assessed as growth arrest at 37 degC for 24 hr; settings: MTCC 39, 24 h
Klebsiella aerogenes [3] = assay: Antibacterial activity against Enterobacter aerogenes MTCC 39 assessed as inhibition zones at 300 ug/disk at 37 degC for 24 hr; settings: MTCC 39, 24 h, read-out: IZ
[4] = system: Chromobacterium violaceum; assay: Antibacterial activity against Chromobacterium violaceum MTCC 2656 assessed as growth arrest at 37 degC for 24 hr; settings: MTCC 2656, 24 h
Staphylococcus aureus [5] = assay: Antibacterial activity against Staphylococcus aureus MTCC 96 assessed as inhibition zones at 300 ug/disc at 37 degC for 24 hr; settings: MTCC 96, 24 h, read-out: IZ
Candida albicans [6] = assay: Antifungal activity against Candida albicans ATCC 10231 assessed as growth inhibition at 37 degC for 48 hr; settings: ATCC 10231, 48 h
Aspergillus fumigatus [7] = assay: Antifungal activity against Aspergillus fumigatus HIC 6094 assessed as growth inhibition at 37 degC for 48 hr; settings: HIC 6094, 48 h
Trichophyton rubrum [8] = assay: Antifungal activity against Trichophyton rubrum IFO 9185 assessed as growth inhibition at 300 ug/disk at 37 degC for 48 hr
[9] = system: Lysinibacillus sphaericus; assay: Antibacterial activity against Lysinibacillus sphaericus MTCC 11 assessed as inhibition zones at 300 ug/disk at 37 degC for 24 hr; settings: MTCC 11, 24 h, read-out: IZ
[10] = system: Lysinibacillus sphaericus; assay: Antibacterial activity against Lysinibacillus sphaericus MTCC 11 assessed as growth arrest at 37 degC for 24 hr; settings: MTCC 11, 24 h
Pseudomonas aeruginosa [11] = assay: Antibacterial activity against Pseudomonas aeruginosa MTCC 741 assessed as inhibition zones at 300 ug/disk at 37 degC for 24 hr; settings: MTCC 741, 24 h, read-out: IZ
Staphylococcus aureus [12] = assay: Antibacterial activity against Staphylococcus aureus MTCC 96 assessed as growth arrest at 37 degC for 24 hr; settings: MTCC 96, 24 h
Bacillus subtilis [13] = assay: Antibacterial activity against Bacillus subtilis MTCC 441 assessed as growth arrest at 37 degC for 24 hr; settings: MTCC 441, 24 h
Bacillus subtilis [14] = assay: Antibacterial activity against Bacillus subtilis MTCC 441 assessed as inhibition zones at 300 ug/disk at 37 degC for 24 hr; settings: MTCC 441, 24 h, read-out: IZ
[15] = system: Ditylenchus myceliophagus; assay: Nematicidal activity against Ditylenchus myceliophagus assessed as immobility; settings: read-out: LD50 (the source's name)
Pseudomonas aeruginosa [16] = assay: Antibacterial activity against Pseudomonas aeruginosa MTCC 741 assessed as growth arrest at 37 degC for 24 hr; settings: MTCC 741, 24 h
Caenorhabditis elegans = assay: Nematicidal activity against Caenorhabditis elegans assessed as immobility; settings: read-out: LD50 (the source's name)
Trichophyton rubrum [17] = assay: Antifungal activity against Trichophyton rubrum IFO 9185 assessed as growth inhibition at 37 degC for 48 hr; settings: IFO 9185, 48 h
[18] = system: Trichophyton mentagrophytes; assay: Antifungal activity against Trichophyton mentagrophytes IFO 40996 assessed as growth inhibition at 300 ug/disc at 37 degC for 48 hr
[19] = system: Trichophyton mentagrophytes; assay: Antifungal activity against Trichophyton mentagrophytes IFO 40996 assessed as growth inhibition at 37 degC for 48 hr
Aspergillus fumigatus [20] = assay: Antifungal activity against Aspergillus fumigatus HIC 6094 assessed as growth inhibition at 300 ug/disc at 37 degC for 48 hr
Candida albicans [21] = assay: Antifungal activity against Candida albicans ATCC 10231 assessed as growth inhibition at 300 ug/disk at 37 degC for 48 hr; settings: ATCC 10231, 48 h, read-out: IZ

Compound	zone of inhibition at 300 µg/disc [1] [mm]	MBC (Klebsiella aerogenes [2]) [µg/mL]	MIC (Klebsiella aerogenes [2]) [µg/mL]	zone of inhibition at 300 µg/disc (Klebsiella aerogenes [3]) [mm]	MBC [4] [µg/mL]	MIC [4] [µg/mL]	zone of inhibition at 300 µg/disc (Staphylococcus aureus [5]) [mm]	MBC (Candida albicans [6]) [µg/mL]	MIC (Candida albicans [6]) [µg/mL]	MBC (Aspergillus fumigatus [7]) [µg/mL]	MIC (Aspergillus fumigatus [7]) [µg/mL]	zone of inhibition at 300 µg/disc [9] [mm]	MBC [10] [µg/mL]	MIC [10] [µg/mL]	zone of inhibition at 300 µg/disc (Pseudomonas aeruginosa [11]) [mm]	MBC (Staphylococcus aureus [12]) [µg/mL]	MIC (Staphylococcus aureus [12]) [µg/mL]	MBC (Bacillus subtilis [13]) [µg/mL]	MIC (Bacillus subtilis [13]) [µg/mL]	zone of inhibition at 300 µg/disc (Bacillus subtilis [14]) [mm]	further results
COc1ccc(N2N=C3C(SC(c4cc(Cc5ccc(OC)c(C6SC7C(=NN(c8ccc(OC)cc8)C7c7ccc(F)cc7)N6c6ccc([N+](=O)[O-])cc6)c5)ccc4OC)N3c3ccc([N+](=O)[O-])cc3)C2c2ccc(F)cc2)cc1 (stereo unspecified)	16	12.5 (≈ 11.1 µM)	6.25 (≈ 5.55 µM)	21	25 (≈ 22.2 µM)	12.5 (≈ 11.1 µM)	21	12.5 (≈ 11.1 µM)	6.25 (≈ 5.55 µM)	25 (≈ 22.2 µM)	12.5 (≈ 11.1 µM)	20	50 (≈ 44.4 µM)	12.5 (≈ 11.1 µM)	9	25 (≈ 22.2 µM)	12.5 (≈ 11.1 µM)	25 (≈ 22.2 µM)	12.5 (≈ 11.1 µM)	14	inhibition zone (IZ) (Trichophyton rubrum [8]): inactive; LC50 [15]: 920 µg/mL (≈ 818 µM); MBC (Pseudomonas aeruginosa [16]): 25 µg/mL (≈ 22.2 µM); MIC (Pseudomonas aeruginosa [16]): 12.5 µg/mL (≈ 11.1 µM); LC50 (Caenorhabditis elegans): 810 µg/mL (≈ 720 µM); MBC (Trichophyton rubrum [17]): 25 µg/mL (≈ 22.2 µM); MIC (Trichophyton rubrum [17]): 12.5 µg/mL (≈ 11.1 µM); inhibition zone (IZ) [18]: inactive; MBC [19]: inactive; MIC [19]: inactive; inhibition zone (IZ) (Aspergillus fumigatus [20]): inactive; zone of inhibition at 300 µg/disc (Candida albicans [21]): 13 mm
COc1ccc(Cc2ccc(OC)c(C3SC4C(=NN(c5ccc(Cl)cc5)C4c4ccc(F)cc4)N3c3ccc(C)cc3)c2)cc1C1SC2C(=NN(c3ccc(Cl)cc3)C2c2ccc(F)cc2)N1c1ccc(C)cc1 (stereo unspecified)	21	50 (≈ 46.6 µM)	12.5 (≈ 11.7 µM)	18	25 (≈ 23.3 µM)	12.5 (≈ 11.7 µM)	29	25 (≈ 23.3 µM)	12.5 (≈ 11.7 µM)	12.5 (≈ 11.7 µM)	6.25 (≈ 5.83 µM)	17	25 (≈ 23.3 µM)	12.5 (≈ 11.7 µM)	11	25 (≈ 23.3 µM)	12.5 (≈ 11.7 µM)	25 (≈ 23.3 µM)	12.5 (≈ 11.7 µM)	17	zone of inhibition at 300 µg/disc (Trichophyton rubrum [8]; IFO 9185, 48 h, read-out: IZ): 11 mm; LC50 [15]: 240 µg/mL (≈ 224 µM); MBC (Pseudomonas aeruginosa [16]): 25 µg/mL (≈ 23.3 µM); MIC (Pseudomonas aeruginosa [16]): 6.25 µg/mL (≈ 5.83 µM); LC50 (Caenorhabditis elegans): 360 µg/mL (≈ 336 µM); MBC (Trichophyton rubrum [17]): 12.5 µg/mL (≈ 11.7 µM); MIC (Trichophyton rubrum [17]): 6.25 µg/mL (≈ 5.83 µM); zone of inhibition at 300 µg/disc ([18]; IFO 40996, 48 h, read-out: IZ): 10 mm; MBC ([19]; IFO 40996, 48 h): 12.5 µg/mL (≈ 11.7 µM); MIC ([19]; IFO 40996, 48 h): 6.25 µg/mL (≈ 5.83 µM); zone of inhibition at 300 µg/disc (Aspergillus fumigatus [20]; HIC 6094, 48 h, read-out: IZ): 11 mm; zone of inhibition at 300 µg/disc (Candida albicans [21]): 13 mm
COc1ccc(Cc2ccc(OC)c(C3SC4C(=NN(c5ccc(Cl)cc5)C4c4ccc(F)cc4)N3c3ccc([N+](=O)[O-])cc3)c2)cc1C1SC2C(=NN(c3ccc(Cl)cc3)C2c2ccc(F)cc2)N1c1ccc([N+](=O)[O-])cc1 (stereo unspecified)	16	25 (≈ 22 µM)	12.5 (≈ 11 µM)	20	50 (≈ 44.1 µM)	12.5 (≈ 11 µM)	16	25 (≈ 22 µM)	25 (≈ 22 µM)	50 (≈ 44.1 µM)	25 (≈ 22 µM)	16	50 (≈ 44.1 µM)	12.5 (≈ 11 µM)	16	25 (≈ 22 µM)	6.25 (≈ 5.51 µM)	50 (≈ 44.1 µM)	6.25 (≈ 5.51 µM)	21	inhibition zone (IZ) (Trichophyton rubrum [8]): inactive; LC50 [15]: 230 µg/mL (≈ 203 µM); MBC (Pseudomonas aeruginosa [16]): 50 µg/mL (≈ 44.1 µM); MIC (Pseudomonas aeruginosa [16]): 50 µg/mL (≈ 44.1 µM); LC50 (Caenorhabditis elegans): 350 µg/mL (≈ 309 µM); MBC (Trichophyton rubrum [17]): 50 µg/mL (≈ 44.1 µM); MIC (Trichophyton rubrum [17]): 25 µg/mL (≈ 22 µM); inhibition zone (IZ) [18]: inactive; MBC ([19]; IFO 40996, 48 h): 12.5 µg/mL (≈ 11 µM); MIC ([19]; IFO 40996, 48 h): 6.25 µg/mL (≈ 5.51 µM); inhibition zone (IZ) (Aspergillus fumigatus [20]): inactive; zone of inhibition at 300 µg/disc (Candida albicans [21]): 15 mm

From ChEMBL document CHEMBL3045223, “Synthesis, nematicidal and antimicrobial properties of Bis-[4-methoxy-3-[3-(4-fluorophenyl)-6-(4-methylphenyl)-2(aryl)-tetrahydro-2H-pyrazolo[3,4-d]thiazol-5-yl]phenyl]methanes” (2009)
